Columns and labels:
hsEH = target: T1, hsEH (Homo sapiens, UniProt P34913); assay: human sEH inhibition (hsEH IC50); format: biochemical
T1 sequence (P34913 1-555): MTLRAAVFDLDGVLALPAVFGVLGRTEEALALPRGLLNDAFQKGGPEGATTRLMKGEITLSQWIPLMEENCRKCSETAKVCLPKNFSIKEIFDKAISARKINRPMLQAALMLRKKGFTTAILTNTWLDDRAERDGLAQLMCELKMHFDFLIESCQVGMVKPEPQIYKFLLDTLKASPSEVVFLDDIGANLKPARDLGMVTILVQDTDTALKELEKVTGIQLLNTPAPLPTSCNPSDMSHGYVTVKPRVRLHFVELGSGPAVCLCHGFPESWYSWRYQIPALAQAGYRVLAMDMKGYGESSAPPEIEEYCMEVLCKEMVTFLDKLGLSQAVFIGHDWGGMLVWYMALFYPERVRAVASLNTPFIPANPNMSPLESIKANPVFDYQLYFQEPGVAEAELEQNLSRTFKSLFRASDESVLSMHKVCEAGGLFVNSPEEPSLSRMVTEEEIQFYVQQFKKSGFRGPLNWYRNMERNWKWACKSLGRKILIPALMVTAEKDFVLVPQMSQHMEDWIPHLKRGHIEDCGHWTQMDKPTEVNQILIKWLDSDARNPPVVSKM

hFAAH = target: T2, hFAAH (Homo sapiens, UniProt O00519); assay: recombinant FAAH enzyme with fluorescent substrate OMP (hFAAH IC50, screen); format: biochemical
T2 construct: made in house
T2 sequence (O00519 1-579): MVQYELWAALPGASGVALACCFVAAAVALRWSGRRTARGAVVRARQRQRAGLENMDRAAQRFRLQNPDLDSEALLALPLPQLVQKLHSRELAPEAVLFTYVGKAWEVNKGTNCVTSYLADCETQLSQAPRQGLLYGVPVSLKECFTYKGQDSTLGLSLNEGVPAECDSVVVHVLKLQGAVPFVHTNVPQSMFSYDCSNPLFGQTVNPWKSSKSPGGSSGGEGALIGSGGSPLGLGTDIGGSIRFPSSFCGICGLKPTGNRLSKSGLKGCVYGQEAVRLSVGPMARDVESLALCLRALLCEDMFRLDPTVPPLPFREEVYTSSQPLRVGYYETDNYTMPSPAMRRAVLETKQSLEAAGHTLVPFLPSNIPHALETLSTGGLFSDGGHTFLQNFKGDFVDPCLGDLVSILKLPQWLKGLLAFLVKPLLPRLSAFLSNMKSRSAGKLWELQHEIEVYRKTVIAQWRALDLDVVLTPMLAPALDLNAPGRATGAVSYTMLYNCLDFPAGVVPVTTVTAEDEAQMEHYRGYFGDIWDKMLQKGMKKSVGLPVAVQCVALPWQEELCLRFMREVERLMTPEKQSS

Row | SMILES | IC50 (hsEH) [nM] | IC50 (hFAAH) [nM] | also measured
1 | O=C(Nc1ccccc1)N[C@H]1CC[C@H](Oc2ccc(C(=O)O)cc2)CC1 [Compound A-1, 4-((trans-4-(3-phenylureido)cyclohexyl)oxy)benzoic acid] | 30 |  | 
2 | O=C(Nc1ccc(F)cc1)N[C@H]1CC[C@H](Oc2ccc(C(=O)O)cc2)CC1 [Compound A-2, 4-((trans-4-(3-(4-fluorophenyl)ureido)cyclohexyl)oxy)benzoic acid] | 18 |  | 
3 | O=C(NCCCCOc1ccc(C(=O)O)cc1)Nc1ccc(OC(F)(F)F)cc1 [Compound A-6, 4-(4-(3-(4-(trifluoromethoxy)phenyl)ureido)butoxy)benzoic acid] | 15 |  | 
4 | O=C(O)c1ccc(OC2CCN(C(=O)Nc3ccc(OC(F)(F)F)cc3)CC2)cc1 [Compound A-10, 4-((1-((4-(trifluoromethoxy)phenyl)carbamoyl)piperidin-4-yl)oxy)benzoic acid] | 8 |  | 
5 | N#Cc1ccc(O[C@H]2CC[C@H](NC(=O)Nc3ccc(OC(F)(F)F)cc3)CC2)cc1 [Compound A-11] | 5 |  | 
6 | COC(=O)c1ccc(O[C@H]2CC[C@H](NC(=O)Nc3ccc(OC(F)(F)F)cc3)CC2)cc1 [Compound A-12, methyl 4-((trans-4-(3-(4-(trifluoromethoxy)phenyl)ureido)cyclohexyl)oxy) benzoate] | 7 |  | 
7 | CC(C)OC(=O)c1ccc(O[C@H]2CC[C@H](NC(=O)Nc3ccc(OC(F)(F)F)cc3)CC2)cc1 [Compound A-13, isopropyl 4-((trans-4-(3-(4-(trifluoromethoxy)phenyl)ureido)cyclohexyl)oxy)benzoate] | 5 |  | 
8 | O=C(Nc1ccc(OC(F)(F)F)cc1)N[C@H]1CC[C@H](Oc2ccc(C(=O)NCCO)cc2)CC1 [Compound A-15, N-(2-hydroxyethyl)-trans-4-((−4-(3-(4-(trifluoromethoxy)phenyl)ureido)cyclohexyl)oxy)benzamide] | 2 |  | 
9 | O=C(O)CNC(=O)c1ccc(O[C@H]2CC[C@H](NC(=O)Nc3ccc(OC(F)(F)F)cc3)CC2)cc1 [Compound A-16] | 2 |  | 
10 | COC(=O)CNC(=O)c1ccc(O[C@H]2CC[C@H](NC(=O)Nc3ccc(OC(F)(F)F)cc3)CC2)cc1 [Compound A-17, methyl trans-(4-((4-(3-(4-(trifluoromethoxy)phenyl)ureido)cyclohexyl)oxy)benzoyl)glycinate] | 3 |  | 
11 | NC(=O)c1ccc(O[C@H]2CC[C@H](NC(=O)Nc3ccc(OC(F)(F)F)cc3)CC2)cc1 [Compound A-19, trans-4-((−4-(3-(4-(trifluoromethoxy)phenyl)ureido)cyclohexyl)oxy) benzamide] | 2 |  | 
12 | O=Cc1ccc(O[C@H]2CC[C@H](NC(=O)Nc3ccc(OC(F)(F)F)cc3)CC2)cc1 [Compound A-20, trans-1-(4-(4-formyl-phenoxy)cyclohexyl)-3-(4-(trifluoromethoxy)phenyl)urea] | 4 |  | 
13 | COc1ccc(O[C@H]2CC[C@H](NC(=O)Nc3ccc(OC(F)(F)F)cc3)CC2)cc1 [Compound A-22] | 3 |  | 
14 | O=C(Nc1ccc(OC(F)(F)F)cc1)N[C@H]1CC[C@H](Oc2ccc(CO)cc2)CC1 [Compound A-24, 1-(trans-4-(4-(hydroxymethyl)phenoxy)cyclohexyl)-3-(4-(trifluoromethoxy)phenyl)urea] | 3 |  | 
15 | Cc1nnc(-c2ccc(O[C@H]3CC[C@H](NC(=O)Nc4ccc(OC(F)(F)F)cc4)CC3)cc2)o1 [Compound A-25, 1-(trans-4-(4-(5-methyl-1,3,4-oxadiazol-2-yl)phenoxy)cyclohexyl)-3-(4-(trifluoromethoxy)phenyl)urea] | 4 |  | 
16 | O=C(Nc1ccc(OC(F)(F)F)cc1)N[C@H]1CC[C@H](Oc2ccc(C(=O)NCc3ccccc3)cc2)CC1 [Compound A-27, N-benzyl-trans-4-((−4-(3-(4-(trifluoromethoxy)phenyl)ureido)cyclohexyl)oxy)benzamide] | 5 |  | 
17 | O=C(Nc1ccc(F)cc1)N1CCC(Cc2cnc3ccccc3c2)CC1 [Compound B-1, N-(4-fluorophenyl)-4-(quinolin-3-ylmethyl)piperidine-1-carboxamide] | 94 ± 42 | 88 | decrease of activity/potency towards FAAH (hFAAH; relative to PF-750): 4 fold; increase of activity/potency towards sEH (hsEH): 7 fold
18 | O=C(Nc1ccc(Cl)cc1)N1CCC(Cc2cnc3ccccc3c2)CC1 [Compound B-2, N-(4-chlorophenyl)-4-(quinolin-3-ylmethyl)piperidine-1-carboxamide] | 20 ± 4 | 62 | decrease of activity/potency towards FAAH (hFAAH; relative to PF-750): 3 fold; increase of activity/potency towards sEH (hsEH): 30 fold
19 | O=C(Nc1ccccc1F)N1CCC(Cc2cnc3ccccc3c2)CC1 [Compound B-3, N-(2-fluorophenyl)-4-(quinolin-3-ylmethyl)piperidine-1-carboxamide] | 800 ± 400 | 49 | increased potency towards FAAH (hFAAH; relative to PF-750): 2.5 fold
20 | O=C(Nc1ccc(OC(F)(F)F)cc1)N1CCC(Cc2cnc3ccccc3c2)CC1 [Compound B-4, 4-(quinolin-3-ylmethyl)-N-(4-(trifluoromethoxy)phenyl)piperidine-1-carboxamide] | 8 ± 1 | 390 | decrease of activity/potency towards FAAH (hFAAH; relative to PF-750): 20.5 fold; increase of activity/potency towards sEH (hsEH): 80 fold
21 | O=C(Nc1cccnc1)N1CCC(Cc2cnc3ccccc3c2)CC1 [Compound B-6, N-(pyridin-3-yl)-4-(quinolin-3-ylmethyl)piperidine-1-carboxamide] | 4700 ± 1800 | 14 | 
22 | O=C(Nc1ccc(OC(F)(F)F)cc1)N1CCC(Cc2cccc(Oc3ccc(C(F)(F)F)cn3)c2)CC1 [Compound B-11, N-(4-(trifluoromethoxy)phenyl)-4-(3-((5-(trifluoromethyl)pyridin-2-yl)oxy)benzyl)piperidine-1-carboxamide] |  |  | hFAAH IC50 (hFAAH): single digit; hsEH IC50 (hsEH): single digit
23 | O=C(Nc1ccc(C(F)(F)F)cc1)N1CCC(Cc2cccc(Oc3ccc(C(F)(F)F)cn3)c2)CC1 [Compound B-13, N-(4-(trifluoromethyl)phenyl)-4-(3-((5-(trifluoromethyl)pyridin-2-yl)oxy)benzyl)piperidine-1-carboxamide] | 7 | 8 | 
24 | O=C(Nc1ccc(C(F)(F)F)cn1)N1CCC(Cc2cccc(Oc3ccc(C(F)(F)F)cn3)c2)CC1 [Compound B-14, N-(5-(trifluoromethyl)pyridin-2-yl)-4-(3-((5-(trifluoromethyl)pyridin-2-yl)oxy)benzyl)piperidine-1-carboxamide] | 60 | 3 | 
25 | O=C(Nc1ccc(C(F)(F)F)nc1)N1CCC(Cc2cccc(Oc3ccc(C(F)(F)F)cn3)c2)CC1 [Compound B-15, 4-(3-((5-(trifluoromethyl)pyridin-2-yl)oxy)benzyl)-N-(6-(trifluoromethyl)pyridin-3-yl)piperidine-1-carboxamide] | 70 | 24 | 
26 | O=C(Nc1cccnn1)N1CCC(Cc2cccc(Oc3ccc(C(F)(F)F)cn3)c2)CC1 [Compound B-16, N-(pyridazin-3-yl)-4-(3-((5-(trifluoromethyl)pyridin-2-yl)oxy)benzyl)piperidine-1-carboxamide] | > 10000 | 0.5 | 
27 | Cc1noc(NC(=O)N2CCC(Cc3cccc(Oc4ccc(C(F)(F)F)cn4)c3)CC2)c1C [Compound B-17] | 500 | 1 | 
